Activity calls are given as the source filed them. No cut-off for these calls is given here.
Assays:
Botrytis cinerea [1] = assay: Antifungal activity against Benzimidalzole-resistant Botryotinia fuckeliana isolate Bc-44 infected compound-treated kidney bean leaves at 200 ppm after 4 days; format: functional
Cercospora beticola [2] = assay: Antifungal activity against Benzimidalzole-resistant Cercospora beticola isolate Cb-19 infected in sugar beet seedlings at 50 ppm treated as foliar application 7 days prior to inoculation; format: functional
Botrytis cinerea [3] = assay: Antifungal activity against Benzimidalzole-resistant Botryotinia fuckeliana isolate Bc-44 infected kidney bean leaves at 50 ppm treated as foliar application followed by incubation for 7 days in green house condition; format: functional
Botrytis cinerea [4] = assay: Antifungal activity against Benzimidalzole-resistant Botryotinia fuckeliana isolate Bc-20 at 0.001 to 1000 ppm after 3 days by agar dilution method; format: functional, organism-based
Botrytis cinerea [5] = assay: Antifungal activity against Benzimidalzole-resistant Botryotinia fuckeliana isolate Bc-44 infected kidney bean leaves at 3.1 ppm 24 hr post-infection measured after 3 days; format: functional
Cercospora beticola [6] = assay: Ratio of EC50 for Benzimidalzole-sensitive Cercospora beticola isolate 24-3 to EC50 for Benzimidalzole-resistant Cercospora beticola isolate 49-4; format: functional
Cercospora beticola [7] = assay: Ratio of EC50 for Benzimidalzole-sensitive Cercospora beticola isolate 18-1 to EC50 for Benzimidalzole-resistant Cercospora beticola isole Cb-19; format: functional
Cercospora beticola [8] = assay: Antifungal activity against Benzimidalzole-resistant Cercospora beticola isolate Cb-19 infected in compound-treated sugar beet seedlings at 3.1 ppm after 12 days; format: functional
Botrytis cinerea [9] = assay: Antifungal activity against Benzimidalzole-resistant Botryotinia fuckeliana isolate Bc-44 infected kidney bean leaves at 50 ppm 24 hr post-infection measured after 3 days; format: functional
Cercospora beticola [10] = assay: Antifungal activity against Benzimidalzole-resistant Cercospora beticola isolate Cb-19 infected in sugar beet seedlings at 3.1 ppm treated as foliar application 7 days prior to inoculation; format: functional
Botrytis cinerea [11] = assay: Ratio of EC50 for Benzimidalzole-resistant Botryotinia fuckeliana isolate Bc-40 to EC50 for Benzimidalzole-resistant Botryotinia fuckeliana isolate Bc-31; format: functional
Botrytis cinerea [12] = assay: Antifungal activity against Benzimidalzole-resistant Botryotinia fuckeliana isolate Bc-44 infected kidney bean leaves at 200 ppm treated as foliar application followed by incubation for 7 days in green house condition; format: functional
Cercospora beticola [13] = assay: Antifungal activity against Benzimidalzole-resistant Cercospora beticola isolate Cb-19 infected in sugar beet seedlings at 3.1 ppm 24 hr-post inoculation; format: functional
Cercospora beticola [14] = assay: Antifungal activity against Benzimidalzole-resistant Cercospora beticola isolate Cb-19 infected in sugar beet seedlings at 50 ppm 24 hr-post inoculation; format: functional
Cercospora beticola [15] = assay: Antifungal activity against Benzimidalzole-resistant Cercospora beticola isolate 49-4 at 0.001 to 1000 ppm after 14 days by agar dilution method; format: functional, organism-based
Cercospora beticola [16] = assay: Antifungal activity against Benzimidalzole-resistant Cercospora beticola isolate Cb-19 infected in compound-treated sugar beet seedlings at 50 ppm after 12 days; format: functional
Cercospora beticola [17] = assay: Antifungal activity against Benzimidalzole-resistant Cercospora beticola isolate 18-2 infected in compound-treated sugar beet seedlings at 12.5 ppm after 12 days; format: functional
Cercospora beticola [18] = assay: Antifungal activity against Benzimidalzole-resistant Cercospora beticola isolate Cb-19 infected in sugar beet seedlings at 200 ppm 24 hr-post inoculation; format: functional
Cercospora beticola [19] = assay: Antifungal activity against Benzimidalzole-resistant Cercospora beticola isolate Cb-19 infected in compound-treated sugar beet seedlings at 200 ppm after 12 days; format: functional
Cercospora beticola [20] = assay: Ratio of EC50 for Benzimidalzole-resistant Cercospora beticola isolate 18-11 to EC50 for Benzimidalzole-resistant Cercospora beticola isolate 49-4; format: functional
Botrytis cinerea [21] = assay: Antifungal activity against Benzimidalzole-resistant Botryotinia fuckeliana isolate Bc-44 at 0.001 to 1000 ppm after 3 days by agar dilution method; format: functional, organism-based
Botrytis cinerea [22] = assay: Antifungal activity against Benzimidalzole-resistant Botryotinia fuckeliana isolate Bc-44 infected kidney bean leaves at 3.1 ppm treated as foliar application followed by incubation for 7 days in green house condition; format: functional
Cercospora beticola [23] = assay: Antifungal activity against Benzimidalzole-resistant Cercospora beticola isolate 18-2 at 0.001 to 1000 ppm after 14 days by agar dilution method; format: functional, organism-based
Cercospora beticola [24] = assay: Antifungal activity against Benzimidalzole-resistant Cercospora beticola isolate Cb-19 infected in sugar beet seedlings at 12.5 ppm treated as foliar application 7 days prior to inoculation; format: functional
Cercospora beticola [25] = assay: Antifungal activity against Benzimidalzole-sensitive Cercospora beticola isolate 24-3 at 0.001 to 1000 ppm after 14 days by agar dilution method; format: functional, organism-based
Botrytis cinerea [26] = assay: Antifungal activity against Benzimidalzole-resistant Botryotinia fuckeliana isolate Bc-44 infected kidney bean leaves at 12.5 ppm treated as foliar application followed by incubation for 7 days in green house condition; format: functional
Cercospora beticola [27] = assay: Antifungal activity against Benzimidalzole-resistant Cercospora beticola isolate 18-2 infected in compound-treated sugar beet seedlings at 50 ppm after 12 days; format: functional
Cercospora beticola [28] = assay: Antifungal activity against Benzimidalzole-resistant Cercospora beticola isolate 28-8 at 0.001 to 1000 ppm after 14 days by agar dilution method; format: functional, organism-based
Cercospora beticola [29] = assay: Ratio of EC50 for […] to EC50 for Benzimidalzole-resistant Cercospora beticola isole Cb-19; format: functional
Cercospora beticola [30] = assay: Ratio of EC50 for Benzimidalzole-sensitive Cercospora beticola isolate 22-5 to EC50 for Benzimidalzole-resistant Cercospora beticola isolate 1-3; format: functional
Cercospora beticola [31] = assay: Antifungal activity against Benzimidalzole-sensitive Cercospora beticola isolate 22-5 at 0.001 to 1000 ppm after 14 days by agar dilution method; format: functional, organism-based
Cercospora beticola [32] = assay: Antifungal activity against Benzimidalzole-resistant Cercospora beticola isolate Cb-19 infected in sugar beet seedlings at 200 ppm treated as foliar application 7 days prior to inoculation; format: functional
Cercospora beticola [33] = assay: Ratio of EC50 for Benzimidalzole-sensitive Cercospora beticola isolate 24-3 to EC50 for Benzimidalzole-resistant Cercospora beticola isolate 1-3; format: functional
Cercospora beticola [34] = assay: Antifungal activity against Benzimidalzole-resistant Cercospora beticola isolate Cb-19 infected in compound-treated sugar beet seedlings at 12.5 ppm after 12 days; format: functional
Cercospora beticola [35] = assay: Ratio of EC50 for Benzimidalzole-sensitive Cercospora beticola isolate 18-1 to EC50 for Benzimidalzole-resistant Cercospora beticola isolate 1-3; format: functional
Cercospora beticola [36] = assay: Ratio of EC50 for Benzimidalzole-sensitive Cercospora beticola isolate 18-1 to EC50 for Benzimidalzole-resistant Cercospora beticola isolate 49-4; format: functional
Botrytis cinerea [37] = assay: Ratio of EC50 for Benzimidalzole-sensitive Botryotinia fuckeliana isolate Bc-3 to EC50 for Benzimidalzole-resistant Botryotinia fuckeliana isolate Bc-31; format: functional
Botrytis cinerea [38] = assay: Antifungal activity against Benzimidalzole-sensitive Botryotinia fuckeliana isolate Bc-9 infected compound-treated kidney bean leaves at 200 ppm after 4 days; format: functional
Cercospora beticola [39] = assay: Ratio of EC50 for Benzimidalzole-resistant Cercospora beticola isolate 6-13 to EC50 for Benzimidalzole-resistant Cercospora beticola isole Cb-19; format: functional
Cercospora beticola [40] = assay: Ratio of EC50 for Benzimidalzole-sensitive Cercospora beticola isolate 22-5 to EC50 for Benzimidalzole-resistant Cercospora beticola isole Cb-19; format: functional
Cercospora beticola [41] = assay: Antifungal activity against Benzimidalzole-sensitive Cercospora beticola isolate 18-1 infected in compound-treated sugar beet seedlings at 200 ppm after 12 days; format: functional
Cercospora beticola [42] = assay: Ratio of EC50 for […] to EC50 for Benzimidalzole-resistant Cercospora beticola isolate 49-4; format: functional
Cercospora beticola [43] = assay: Ratio of EC50 for Benzimidalzole-resistant Cercospora beticola isolate 20-2 to EC50 for Benzimidalzole-resistant Cercospora beticola isolate 18-2; format: functional

C#CCOc1c(Cl)cc(N/C=N/OC)cc1Cl
Activity (Botrytis cinerea [1]): 100%
Activity (Cercospora beticola [2]): 99%
Activity (Botrytis cinerea [3]): 100%
Activity (Botrytis cinerea [4]): inactive
Activity (Botrytis cinerea [5]): 73%
Ratio EC50 (Cercospora beticola [6]): > 1000
Ratio EC50 (Cercospora beticola [7]): > 1000
Activity (Cercospora beticola [8]): 91%
Activity (Botrytis cinerea [9]): 100%
Activity (Cercospora beticola [10]): 40%
Ratio EC50 (Botrytis cinerea [11]): > 1000
Activity (Botrytis cinerea [12]): 100%
Activity (Cercospora beticola [13]): 44%
Activity (Cercospora beticola [14]): 98%
Activity (Cercospora beticola [15]): Active
Activity (Cercospora beticola [16]): 100%
Activity (Cercospora beticola [17]): 94%
Activity (Cercospora beticola [18]): 100%
Activity (Cercospora beticola [19]): 100%
Ratio EC50 (Cercospora beticola [20]): > 1000
Activity (Botrytis cinerea [21]): Active
Activity (Botrytis cinerea [22]): 17%
Activity (Cercospora beticola [23]): Active
Activity (Cercospora beticola [24]): 93%
Activity (Cercospora beticola [25]): inactive
Activity (Botrytis cinerea [26]): 53%
Activity (Cercospora beticola [27]): 100%
Activity (Cercospora beticola [28]): Active
Ratio EC50 (Cercospora beticola [29]): > 1000
Ratio EC50 (Cercospora beticola [30]): > 1000
Activity (Cercospora beticola [31]): inactive
Activity (Cercospora beticola [32]): 100%
Ratio EC50 (Cercospora beticola [33]): > 1000
Activity (Cercospora beticola [34]): 100%
Ratio EC50 (Cercospora beticola [35]): > 1000
Ratio EC50 (Cercospora beticola [36]): > 1000
Ratio EC50 (Botrytis cinerea [37]): > 1000
Activity (Botrytis cinerea [38]): 8%
Ratio EC50 (Cercospora beticola [39]): > 1000
Ratio EC50 (Cercospora beticola [40]): > 1000
Activity (Cercospora beticola [41]): 0%
Ratio EC50 (Cercospora beticola [42]): > 1000
Ratio EC50 (Cercospora beticola [43]): > 1000

C#CCOc1cc(N/C=N/OC)cc(Cl)c1OCC#C
Activity (Botrytis cinerea [1]): 100%
Activity (Cercospora beticola [2]): 100%
Activity (Botrytis cinerea [3]): 90%
Activity (Botrytis cinerea [4]): inactive
Activity (Botrytis cinerea [5]): 91%
Ratio EC50 (Cercospora beticola [6]): > 1000
Ratio EC50 (Cercospora beticola [7]): > 1000
Activity (Cercospora beticola [8]): 94%
Activity (Botrytis cinerea [9]): 100%
Activity (Cercospora beticola [10]): 58%
Ratio EC50 (Botrytis cinerea [11]): > 1000
Activity (Botrytis cinerea [12]): 100%
Activity (Cercospora beticola [13]): 54%
Activity (Cercospora beticola [14]): 100%
Activity (Cercospora beticola [15]): Active
Activity (Cercospora beticola [16]): 100%
Activity (Cercospora beticola [17]): 100%
Activity (Cercospora beticola [18]): 100%
Activity (Cercospora beticola [19]): 100%
Ratio EC50 (Cercospora beticola [20]): > 1000
Activity (Botrytis cinerea [21]): Active
Activity (Botrytis cinerea [22]): 31%
Activity (Cercospora beticola [23]): Active
Activity (Cercospora beticola [24]): 80%
Activity (Cercospora beticola [25]): inactive
Activity (Botrytis cinerea [26]): 63%
Activity (Cercospora beticola [27]): 100%
Activity (Cercospora beticola [28]): Active
Ratio EC50 (Cercospora beticola [29]): > 1000
Ratio EC50 (Cercospora beticola [30]): > 1000
Activity (Cercospora beticola [31]): inactive
Activity (Cercospora beticola [32]): 100%
Ratio EC50 (Cercospora beticola [33]): > 1000
Activity (Cercospora beticola [34]): 100%
Ratio EC50 (Cercospora beticola [35]): > 1000
Ratio EC50 (Cercospora beticola [36]): > 1000
Ratio EC50 (Botrytis cinerea [37]): > 1000
Activity (Botrytis cinerea [38]): 7%
Ratio EC50 (Cercospora beticola [39]): > 1000
Ratio EC50 (Cercospora beticola [40]): > 1000
Activity (Cercospora beticola [41]): 0%
Ratio EC50 (Cercospora beticola [42]): > 1000
Ratio EC50 (Cercospora beticola [43]): > 1000

Reference: ChEMBL document CHEMBL3046025, “Fungitoxic Properties of N-Phenylformamidoximes in Control of Benzimidazole-Resistant Isolates of Fungi” (1992)
